Results: BigSolDB 2.1

CO/N=C(\C(=O)Sc1nc2ccccc2s1)c1csc(N)n1
Settings | solubility (mole fraction)
in 1,2-dichloroethane, 277.83 K | 0.000358
in 1,2-dichloroethane, 282.77 K | 0.000458
in 1,2-dichloroethane, 287.63 K | 0.000619
in 1,2-dichloroethane, 292.84 K | 0.000876
in 1,2-dichloroethane, 297.85 K | 0.00118
in 1,2-dichloroethane, 302.64 K | 0.00154
in THF, 278.4 K | 0.0243
in THF, 283.75 K | 0.0259
in THF, 288.8 K | 0.028
in THF, 293.25 K | 0.0311
in THF, 298.06 K | 0.0352
in THF, 302.95 K | 0.0397
in acetone, 278.32 K | 0.00245
in acetone, 283.31 K | 0.00286
in acetone, 288.15 K | 0.00334
in acetone, 293.2 K | 0.0039
in acetone, 298.54 K | 0.00472
in acetone, 303.28 K | 0.0057
in acetonitrile, 279.45 K | 0.000216
in acetonitrile, 283.46 K | 0.000262
in acetonitrile, 288.45 K | 0.000342
in acetonitrile, 292.98 K | 0.000451
in acetonitrile, 297.47 K | 0.000581
in acetonitrile, 302.45 K | 0.000761
in dichloromethane, 278.6 K | 0.000719
in dichloromethane, 283.64 K | 0.000967
in dichloromethane, 288.46 K | 0.00128
in dichloromethane, 294.03 K | 0.00171
in dichloromethane, 298.71 K | 0.00217
in dichloromethane, 303.44 K | 0.00267
